From patent publication US20230117920A1, “Library Construction Method, Cyclic Peptide, FXIIa Binder and IFNGR1 Binder” (The University of Tokyo, priority 2019, published 2023)
Read-outs that look alike come from different tables or passages of the source. Starred links: 1 amine or outer side, 2 acyl side, 3 side chain; linkers in the order of their positions; H or OH if unused. Positions of bridges follow the written chain, without caps; N, C: chain ends. Non-standard residues stand in square brackets, D forms with d. Residues, ends and D or L forms follow the SMILES beside them. No end group written: not given here. ACHC(1S,2S) = O=C([C@H]1CCCC[C@@H]1N[*:1])[*:2]; X1 = O=C([C@@H]1CCC[C@H]1N[*:1])[*:2]; X2 = O=C([C@H]1CCC[C@@H]1N[*:1])[*:2]

Legend:
[1] = target: human factor XIIa (FXIIa) (Homo sapiens, UniProt P00748); test: biochemical; details: for kon: read-out: ka
FXIIa [2] = target: T1, FXIIa (Homo sapiens, UniProt P00748); test: biochemical
[3] = target: interferon γ receptor 1 (IFNGR1) (Homo sapiens, UniProt P15260); test: biochemical; details: for kon: read-out: ka
FXIIa [4] = target: T1, FXIIa; details: reference protein inhibitor against FXIIa; cited from earlier work
[5] = target: T2, human factor XIIa (activated blood coagulation factor XII) (human, UniProt P00748 20-615, limits assumed, biotinylated (site not stated)); test: SPR, Biacore T200, 25 C, single cycle kinetics, 1:1 model; peptide F2A (drawing CHEM-US-00044, read number 0), control variant of F2
T2 construct: The construct used for SPR, for the Ki assay and for the cocrystal is not described; The same entry is used for all three; also called FXIIa; FXIIA
T2 sequence (looked up): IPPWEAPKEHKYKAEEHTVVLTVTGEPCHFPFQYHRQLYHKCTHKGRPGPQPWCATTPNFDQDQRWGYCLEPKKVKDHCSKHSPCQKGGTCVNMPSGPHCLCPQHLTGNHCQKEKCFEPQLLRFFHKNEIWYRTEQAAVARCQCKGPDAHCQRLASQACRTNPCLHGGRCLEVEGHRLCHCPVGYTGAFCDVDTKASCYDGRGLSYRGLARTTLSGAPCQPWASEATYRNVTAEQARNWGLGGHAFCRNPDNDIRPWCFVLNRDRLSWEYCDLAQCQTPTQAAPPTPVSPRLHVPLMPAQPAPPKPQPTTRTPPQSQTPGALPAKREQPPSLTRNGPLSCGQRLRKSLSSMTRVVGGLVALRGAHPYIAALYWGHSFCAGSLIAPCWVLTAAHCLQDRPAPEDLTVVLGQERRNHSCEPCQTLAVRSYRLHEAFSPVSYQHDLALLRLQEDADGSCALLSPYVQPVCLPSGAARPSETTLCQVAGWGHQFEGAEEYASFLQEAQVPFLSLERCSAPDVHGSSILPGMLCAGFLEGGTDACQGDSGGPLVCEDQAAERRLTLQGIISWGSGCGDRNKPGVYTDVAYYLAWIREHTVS

[6] = target: T2, human factor XIIa (activated blood …); test: SPR, Biacore T200, 25 C, single cycle kinetics, 1:1 model
[7] = target: T2, human factor XIIa (activated blood …); test: inhibition of FXIIa cleavage of the chromogenic substrate S-2302 (H-D-Pro-Phe-Arg-pNA), absorbance at 405 nm
[8] = target: human factor XIIa (activated blood coagulation factor XII) (human) (UniProt P00748); test: SPR, Biacore T200, 25 C, single cycle kinetics, 1:1 model

Molecule | kon [1] [M⁻¹ s⁻¹] | Kd [3] [nM] | kon [3] [M⁻¹ s⁻¹] | other results
CC(C)C[C@@H]1NC(=O)[C@H](CCCNC(=N)N)NC(=O)[C@H](C)NC(=O)[C@H](CCCNC(=N)N)NC(=O)[C@H]([C@@H](C)O)NC(=O)[C@H](CO)NC(=O)[C@H](CCCNC(=N)N)NC(=O)[C@H](CC(=O)O)NC(=O)[C@H](CC(N)=O)NC(=O)[C@@H](Cc2ccc(O)cc2)NC(=O)CSC[C@H](C(N)=O)NC(=O)[C@H](C)NC(=O)[C@H](C(C)C)NC1=O [F1A] ({CH2CO}-[dY]NDRSTRARLVA[dC]-NH2; thioether N-13) | 580000 | – | – | –
CC(C)C[C@@H]1NC(=O)[C@H](CCCNC(=N)N)NC(=O)[C@@H]2CCC[C@H]2NC(=O)[C@H](CCCNC(=N)N)NC(=O)[C@H]([C@@H](C)O)NC(=O)[C@H](CO)NC(=O)[C@H](CCCNC(=N)N)NC(=O)[C@H](CC(=O)O)NC(=O)[C@H](CC(N)=O)NC(=O)[C@@H](Cc2ccc(O)cc2)NC(=O)CSC[C@H](C(=O)NCC(N)=O)NC(=O)[C@H](C)NC(=O)[C@H](C(C)C)NC1=O [F1] ({CH2CO}-[dY]NDRSTR[X1]RLVA[dC]G-NH2; thioether N-13) | 2.74e+06 | – | – | Kd [1]: 8.21 nM; Ki (FXIIa [2]): 22.1 nM
CC(C)C[C@@H]1NC(=O)[C@H](Cc2ccc(O)cc2)NC(=O)[C@H](CO)NC(=O)[C@H](C)NC(=O)[C@H](CC(N)=O)NC(=O)[C@H](Cc2ccccc2)NC(=O)[C@H](CC(C)C)NC(=O)[C@H](CCCNC(=N)N)NC(=O)[C@@H]2CCCN2C(=O)[C@@H](Cc2ccc(O)cc2)NC(=O)CSC[C@H](C(N)=O)NC(=O)[C@H](CCCNC(=N)N)NC(=O)[C@H](CCCNC(=N)N)NC1=O [F2A] ({CH2CO}-[dY]PRLFNASYLRR[dC]-NH2; thioether N-13) | 4.75e+06 | – | – | –
CC(C)C[C@@H]1NC(=O)[C@H](Cc2ccc(O)cc2)NC(=O)[C@H](CO)NC(=O)[C@@H]2CCC[C@H]2NC(=O)[C@H](CC(N)=O)NC(=O)[C@H](Cc2ccccc2)NC(=O)[C@H](CC(C)C)NC(=O)[C@H](CCCNC(=N)N)NC(=O)[C@@H]2CCCN2C(=O)[C@@H](Cc2ccc(O)cc2)NC(=O)CSC[C@H](C(=O)NCC(N)=O)NC(=O)[C@H](CCCNC(=N)N)NC(=O)[C@H](CCCNC(=N)N)NC1=O [F2] ({CH2CO}-[dY]PRLFN[X1]SYLRR[dC]G-NH2; thioether N-13) | 3.07e+07 | – | – | Kd [1]: 0.58 nM; Ki (FXIIa [2]): 2.14 nM
CC(C)C[C@@H]1NC(=O)[C@H]2CCCC[C@@H]2NC(=O)[C@H](CCCNC(=N)N)NC(=O)[C@H](CCCNC(=N)N)NC(=O)[C@H](CC(=O)O)NC(=O)[C@H](Cc2ccc(O)cc2)NC(=O)[C@H](C)NC(=O)[C@H](Cc2ccccc2)NC(=O)[C@@H](Cc2ccc(O)cc2)NC(=O)CSC[C@H](C(=O)NCC(N)=O)NC(=O)[C@H](Cc2ccc(O)cc2)NC(=O)[C@H](CC(N)=O)NC(=O)[C@H](CCCNC(=N)N)NC(=O)[C@H]2CCCC[C@@H]2NC(=O)[C@H](CC(N)=O)NC(=O)[C@H](CC(N)=O)NC(=O)[C@H](CO)NC1=O [F3] ({CH2CO}-[dY]FAYDRR[ACHC(1S,2S)]LSNN[ACHC(1S,2S)]RNY[dC]G-NH2; thioether N-17) | 1.59e+06 | – | – | –
CC(C)C[C@@H]1NC(=O)[C@H](CCCNC(=N)N)NC(=O)[C@H](CC(N)=O)NC(=O)[C@H]2CCCC[C@@H]2NC(=O)[C@H]([C@@H](C)O)NC(=O)[C@H](Cc2ccc(O)cc2)NC(=O)[C@H](CCCNC(=N)N)NC(=O)[C@@H](Cc2ccc(O)cc2)NC(=O)CSC[C@H](C(=O)NCC(N)=O)NC(=O)[C@H](C)NC(=O)[C@H](CC(N)=O)NC(=O)[C@H]2CCCC[C@@H]2NC(=O)[C@H](Cc2ccccc2)NC1=O [F4] ({CH2CO}-[dY]RYT[ACHC(1S,2S)]NRLF[ACHC(1S,2S)]NA[dC]G-NH2; thioether N-13) | 550000 | – | – | Kd [1]: 15.5 nM; Ki (FXIIa [2]): 4.32 nM
CC(C)[C@@H]1NC(=O)CNC(=O)[C@H](Cc2ccccc2)NC(=O)[C@@H](Cc2ccc(O)cc2)NC(=O)CSC[C@H](C(=O)NCC(N)=O)NC(=O)[C@H]([C@@H](C)O)NC(=O)[C@H](CCCNC(=N)N)NC(=O)[C@H](CC(N)=O)NC(=O)[C@H](Cc2ccc(O)cc2)NC(=O)[C@H](Cc2ccccc2)NC(=O)[C@@H]2CCC[C@H]2NC(=O)[C@H](CCCNC(=N)N)NC1=O [I1-1] ({CH2CO}-[dY]FGVR[X1]FYNRT[dC]G-NH2; thioether N-12) | – | 5 | 1.74e+06 | –
CC(C)C[C@@H]1NC(=O)CNC(=O)[C@H](C(C)C)NC(=O)[C@@H](Cc2ccc(O)cc2)NC(=O)CSC[C@H](C(=O)NCC(N)=O)NC(=O)[C@H]([C@@H](C)O)NC(=O)[C@H](CCCNC(=N)N)NC(=O)[C@H](CC(N)=O)NC(=O)[C@H](CC(C)C)NC(=O)[C@H](CO)NC(=O)[C@@H]2CCC[C@H]2NC(=O)[C@H](CC(N)=O)NC1=O [I1-3] ({CH2CO}-[dY]VGLN[X1]SLNRT[dC]G-NH2; thioether N-12) | – | 150 | 1.41e+06 | –
CC(C)C[C@@H]1NC(=O)[C@H](CO)NC(=O)[C@H](Cc2ccccc2)NC(=O)[C@@H](Cc2ccc(O)cc2)NC(=O)CSC[C@H](C(=O)NCC(N)=O)NC(=O)CNC(=O)[C@H](CCCNC(=N)N)NC(=O)[C@H](CO)NC(=O)[C@H](CCCNC(=N)N)NC(=O)[C@H](CC(N)=O)NC(=O)[C@H](Cc2ccccc2)NC(=O)[C@H](CO)NC(=O)[C@@H]2CCC[C@H]2NC(=O)[C@H](CCCNC(=N)N)NC1=O [I1-4] ({CH2CO}-[dY]FSLR[X1]SFNRSRG[dC]G-NH2; thioether N-14) | – | 5.76 | 3.39e+06 | –
CC(C)C[C@@H]1NC(=O)[C@H](C)NC(=O)[C@H](Cc2ccccc2)NC(=O)[C@@H](Cc2ccc(O)cc2)NC(=O)CSC[C@H](C(=O)NCC(N)=O)NC(=O)[C@H](CCCNC(=N)N)NC(=O)[C@H](CCCNC(=N)N)NC(=O)[C@H](CC(N)=O)NC(=O)[C@H]2CCCC[C@@H]2NC(=O)[C@H](CCCNC(=N)N)NC(=O)[C@@H]2CCC[C@H]2NC(=O)[C@H](CC(N)=O)NC1=O [I1-5] ({CH2CO}-[dY]FALN[X1]R[ACHC(1S,2S)]NRR[dC]G-NH2; thioether N-12) | – | 336 | 3.01e+06 | –
CC(C)[C@@H]1NC(=O)CNC(=O)[C@H](Cc2ccccc2)NC(=O)[C@@H](Cc2ccc(O)cc2)NC(=O)CSC[C@H](C(=O)NCC(N)=O)NC(=O)[C@H]([C@@H](C)O)NC(=O)[C@H](CCCNC(=N)N)NC(=O)[C@H](CC(N)=O)NC(=O)[C@H](Cc2ccc(O)cc2)NC(=O)[C@H](Cc2ccccc2)NC(=O)[C@@H]2CCC[C@H]2NC(=O)[C@H]2CCC[C@@H]2NC1=O [I1-6] ({CH2CO}-[dY]FGV[X2][X1]FYNRT[dC]G-NH2; thioether N-12) | – | 1.87 | 920000 | –
CC(C)C[C@@H]1NC(=O)[C@H](CC(N)=O)NC(=O)[C@H](Cc2ccc(O)cc2)NC(=O)[C@H](CCCNC(=N)N)NC(=O)[C@@H]2CCCN2C(=O)[C@@H](Cc2ccc(O)cc2)NC(=O)CSC[C@H](C(=O)NCC(N)=O)NC(=O)[C@H](CC(N)=O)NC(=O)[C@@H]2CCC[C@H]2NC(=O)[C@H](Cc2ccccc2)NC(=O)[C@H](CCCNC(=N)N)NC(=O)[C@@H]2CCCN2C(=O)[C@H](CO)NC(=O)[C@H](C)NC(=O)CNC(=O)[C@H]2CCC[C@@H]2NC1=O [I2] ({CH2CO}-[dY]PRYNL[X2]GASPRF[X1]N[dC]G-NH2; thioether N-16) | – | 12.3 | 1.98e+06 | –
corn trypsin inhibitor [CTI] | – | – | – | Ki (FXIIa [4]): 24 nM
{CH2CO}-[dY]PRLFNASYLRR[dC] (thioether N-13, also called negative control peptide of F2) [F2A] | – | – | – | Kd [5]: 92.2 nM; koff [6]: 0.438 s⁻¹
{CH2CO}-[dY]NDRSTRARLVA[dC] (thioether N-13, also called negative control peptide of F1; Ala mutant F1A) [F1A] | – | – | – | Kd [6]: 51.3 nM; koff [6]: 0.0297 s⁻¹
{CH2CO}-[dY]FAYDRR[ACHC(1S,2S)]LSNN[ACHC(1S,2S)]RNY[dC] (thioether N-17, Made by solid-phase synthesis with the C-terminal TGTGT linker omitted; The formula f3 in the summary and claims ends in RNT; also called yFAYDRR1LSNN1RNYc) [F3] | – | – | – | Ki [7]: 1.02 nM; Kd [6]: 0.98 nM; koff [6]: 0.0016 s⁻¹
YNDRSTRXRLVAC (not fully specified; 1: D-Tyr, N-acetylated (from N-chloroacetyl-D-Tyr), the acetyl joined by a thioether bond to the thiol of D-Cys 13 (cyclic peptide); 8 (X, printed '2'): (1R,2R)-2-ACPC; 13: D-Cys) [F1] | – | – | – | koff [8]: 0.0225 s⁻¹
YRYTXNRLFXNAC (not fully specified; 1: D-Tyr, N-acetylated (from N-chloroacetyl-D-Tyr), thioether to D-Cys 13 (cyclic peptide); 5 and 10 (X, printed '1'): (1S,2S)-2-ACHC; 13: D-Cys) [F4] | – | – | – | koff [8]: 0.0085 s⁻¹
YPRLFNXSYLRRC (not fully specified; 1: D-Tyr, N-acetylated (from N-chloroacetyl-D-Tyr), thioether to D-Cys 13 (cyclic peptide); 7 (X, printed '2'): (1R,2R)-2-ACPC; 13: D-Cys) [F2] | – | – | – | koff [8]: 0.0178 s⁻¹
